In patent US20150087037A1, “FERMENTATION PROCESS” (LanzaTech New Zealand Limited, priority 2013, published 2015):

Columns and labels:
[1] = tested on: LZ1561; test: Differential gene expression analysis before and after 2-HIBA addition (Example 6); assay type: cell-based, Clostridium autoethanogenum
Description: In order to understand the impact of 2-HIBA on the metabolism of LZ1561 samples were taken for gene expression analysis. A reactor was started up as a batch and after 1 day was turned continuous at a D=1.4 day^−1. Gas flow and agitation were adjusted in order to minimise acetate and maximise ethanol and 2,3-BDO production. By day 7 the Ethanol:2,3-BDO ratio was less than 5:1 and the gas had reached target CO uptake of between 5-6 mol/L/day. On day 9.6 a sample was taken for gene expression analysis representing stable data without 2-HIBA. […] The results for this analysis indicated very clearly that 2-HIBA interacts with the Branch Chain Amino Acid biosynthesis pathway (BCAA). From the results a mode of action of 2-HIBA was proposed and this is illustrated and described in FIG. 11.

[2] = tested on: Clostridium autoethanogenum; test: Fermentation of gaseous substrate comprising CO with 2-HIBA: general findings and carbon balance; assay type: cell-based
Description: Accordingly, the inventors are the first to devise a process for producing high concentrations of 2,3-butanediol through the microbial fermentation of a gaseous substrate comprising CO. In a first stage, a gaseous substrate comprising CO is fed to a bioreactor containing a culture of one or more microorganisms suspending in liquid nutrient media. The gaseous substrate is anaerobically fermented to produce one or more alcohols and/or one or more acids or mixtures thereof. Compounds are provided to the fermentation to alter the metabolite profile of the fermentation.
Carbon balance measurements were performed to confirm the shift to increased 2,3-butanediol production after addition of 2-HIBA.
As the 2-HIBA is not consumed by the fermentation, it is possible to recover 2-HIBA exiting the bioreactor and pass it back to the bioreactor to improve the efficiency of the fermentation.

[3] = tested on: C. autoethanogenum DSM23693; test: Minimum 2-HIBA concentration needed to impact 2,3-butanediol production, continuous addition through the media (Example 4); assay type: cell-based, Clostridium autoethanogenum
Method: (§1) Fermentations with C. autoethanogenum DSM23693 were carried out in 1.5 L bioreactors at 37° C. The media was prepared according to Table 1. To achieve anaerobicity the reactor vessel was sparged with nitrogen. Prior to inoculation, the gas was switched to either steel mill gas containing H2 (3%), N2 (30%), CO (47%) and CO2 (20%) or pure gases (50% CO, 18-40% CO2, with the balance N2). The gas flow was initially set at 67 ml/min/L, increasing to 200 ml/min during mid-exponential phase, while the agitation was increased from 200 rpm to 800. Na2S was dosed into the bioreactor at 0.25 ml/hr. Once the OD600 reached 1.5, the bioreactor was switched to a continuous mode at a dilution rate of 2.0-1.6 d-l and a bacterial dilution rate of 0.9-0.6 d-l. During continuous mode gas and agitation were adjusted to 900-950 rpm and 800-900 ml/min. Na2S was increased to 1.0 ml/hr.
(§2) Liquid culture samples were taken at differing intervals over the duration of the fermentation. These samples were used to establish the optical density at 600 nm (spectrophotometer) and the level of substrates and products (high performance liquid chromatography—HPLC). HPLC was routinely used to quantify the level of acetate, ethanol and 2,3-butanediol. The input and output gas compositions were analysed using a gas chromatographer (GC), allowing measurement of CO and H2 consumption and CO2 production by the culture.
In order to understand the minimum concentrations needed to generate the same effect the concentration used was dropped to 0.1 g/L (0.96 mM) in one example and 0.05 g/L (0.48 mM) in another example. Both fermentations had gas increased to minimize acetate and maximize ethanol production. Additional CO2 was blended into the gas stream to maximize 2,3-BDO production, the gas blend used was 50% CO, 35% CO2, 1.5% H2 with N2 balance. The dilution rate and bacterial dilution rate were adjusted to 1.8 day^−1 and 0.8 day^−1 respectively. Once stable data was collected continuous 2-HIBA addition through the media was started and resulting impact on metabolite concentrations observed. In both examples the ratio before the addition of 2-HIBA was about 2:1, and the resulting impact on the Ethanol:2,3-BDO ratio was proportional to the concentration of 2-HIBA used. In the first example where 0.1 g/L (0.96 mM) was used the ratio improved to 1:1 and when the concentration was halved (in the second example) the response was an improvement in the ratio to only 1.5:1.
In two further experiments concentrations from 0.01 g/L to 0.1 g/L (0.096, 0.24, 0.48, 0.72, 0.96 mM) were added and the impact on the metabolites observed. Again the fermentations had gas increased to minimize acetate and maximize ethanol production with CO2 blended into the gas stream to maximize 2,3-BDO production. The dilution rate and bacterial dilution rate were adjusted to 1.8 day^−1 and 0.9 day^−1 respectively. The gas blend used was 42% CO, 35% CO2, 1.5% H2 with N2 balance.

[4] = tested on: C. autoethanogenum DSM23693; test: Single reactor fermentation optimised for 2,3-BDO production, single 2-HIBA addition (Example 1); assay type: cell-based, Clostridium autoethanogenum
Method: as §1, §2
The impacts of 2-HIBA were investigated on a single reactor system which had been optimised for 2,3-BDO production. This was done to ascertain the impact that this chemical would have on a high performance system and obtain information on suitable concentrations that would not interfere with overall fermentation stability.
The 2,3-BDO concentration increased from 6 g/L to 12 g/L dropping the ratio from 4:1 to as low as 1.4:1. […] The concentration of 2-HIBA was monitored in the reactor liquid outflow. […] The 2-HIBA washes out of the fermenter according to the bacterial dilution rate.

[5] = 0 mM vs 4.8 mM 2-HIBA addition, down-regulated
[6] = 0 mM vs 4.8 mM 2-HIBA addition, up-regulated

CC(C)(O)C(=O)O [2-HIBA, 2-hydroxyisobutyric acid]
log2 fold_change, or1907 Indole-3-glycerol phosphate synthase CDS [1, 5]: −3.042
log2 fold_change, or2161 Alcohol dehydrogenase CDS [1, 5]: −3.476
log2 fold_change, or2739 Glutamate synthase (NADPH) CDS [1, 5]: −3.498
log2 fold_change, or2997 Glycerol dehydrogenase CDS [1, 5]: −4.924
log2 fold_change, or3075 Glucarate dehydratase CDS [1, 5]: −4.084
log2 fold_change, or3076 hypothetical protein CDS [1, 5]: −3.469
log2 fold_change, or3079 Methylglyoxal reductase (NADPH-dependent) CDS [1, 5]: −4.02
log2 fold_change, or3080 transcriptional regulator, CdaR CDS [1, 5]: −3.947
log2 fold_change, or1190 2-isopropylmalate synthase CDS [1, 6]: 3.63
log2 fold_change, or1191 3-isopropylmalate dehydratase large subunit CDS [1, 6]: 3.55
log2 fold_change, or1193 3-isopropylmalate dehydrogenase CDS [1, 6]: 3.289
log2 fold_change, or2387 Ketol-acid reductoisomerase CDS [1, 6]: 3.202
log2 fold_change, or2388 Dihydroxy-acid dehydratase CDS [1, 6]: 2.901
log2 fold_change, or2389 acetolactate synthase, large subunit, biosynthetic type CDS [1, 6]: 3.255
log2 fold_change, or2390 acetolactate synthase, small subunit CDS [1, 6]: 3.237
log2 fold_change, or2461 General substrate transporter CDS [1, 6]: 2.867
response in metabolites ([1]; 0.5 g/L (4.8 mM) 2-HIBA added on day 10.78): decreasing acetate, ethanol and biomass with increasing 2,3-BDO
Biomass ([1]; Day 12.8-14.0, stable 0.5 g/L HIBA addition, before 4.7): 3.45 g/L
CO uptake ([1]; Day 12.8-14.0, stable 0.5 g/L HIBA addition, before 5.7): 5.1 mol/L/day
2,3-BDO concentration ([2]; 2-HIBA at 0.01 g/L-2.0 g/L (0.096 to 19.2 mM)): significantly increases
ethanol:2,3-BDO ratio ([2]; addition of 2-HIBA): significantly improves
carbon balance ([2]; before and after addition of 2-HIBA, FIG. 14): clear increase in 2,3-butanediol production, accompanied by a decrease in production of ethanol, acetate and biomass
overall fermentation stability ([2]; continuous addition, 0.01 g/L/day-2.0 g/L/day (0.096 to 19.2 mM/day)): without affecting overall fermentation stability
lowest concentration that impacts on the production of 2,3-butanediol ([3]; 0.01 g/L to 0.1 g/L tested, 0.01 g/L = 0.096 mM): 0.01 g/L
CO uptake ([3]; Expt 1: 0.96 mM/day HIBA addition, before 9.4): 9.8 mol/L/day
2,3-BDO ([3]; Expt 1: 0.96 mM/day HIBA addition, before 9.67): 16.35 g/L
Biomass ([3]; Expt 1: 0.96 mM/day HIBA addition, before 10.7): 9.83 g/L
Ethanol ([3]; Expt 1: 0.96 mM/day HIBA addition, before 20.33): 17.05 g/L
CO uptake ([3]; Expt 2: 0.48 mM/day HIBA addition, before 8.2): 8 mol/L/day
2,3-BDO ([3]; Expt 2: 0.48 mM/day HIBA addition, before 8.42): 10.56 g/L
Biomass ([3]; Expt 2: 0.48 mM/day HIBA addition, before 12.69): 12.14 g/L
Ethanol ([3]; Expt 2: 0.48 mM/day HIBA addition, before 18.73): 15.56 g/L
drop of Ethanol:2,3-BDO ratio ([3]; for every 0.05 g/L (0.48 mM) added to a stable fermentation, data of four examples, FIG. 8): 0.5 units
impact on gas uptake ([4]; 0.5 g/L (4.8 mM) 2-HIBA): not to have a detrimental impact on gas uptake
metabolite profile of the fermentation ([4]; 0.5 g/L (4.8 mM) 2-HIBA, FIG. 1): increasing the production of 2,3-butanediol whilst decreasing the production of ethanol, acetate and biomass
2,3-BDO concentration ([4]; after 0.5 g/L (4.8 mM) 2-HIBA added on day 7.95, increased from 6 g/L): 12 g/L
overall washout rate of 2-HIBA ([4]; matched the bacterial dilution rate): 0.7 day⁻¹
initial washout rate of 2-HIBA ([4]; similar to the dilution rate): ~1.8 day⁻¹
